Data set [1] relates to hPSC (hESC cell line H1 and NMF-iPS6). Kind of data set: passive differentiation into three germ layers after 30 passages. Particulars: after 30 consecutive enzymatic passages. It is filed as cell-based, human. The source says: HPSC treated for 30 passages with SC332 or Y27632 were passively differentiated for 2 weeks in suspension culture, followed by 2 weeks adherent culture, fixed and stained for markers of the three germ layers. Control cells that had been mechanically passaged and unexposed to any survival compound were also differentiated and stained in the same way. PAX6 is stained in the left hand column, AFP in the centre column and SMA in the right hand column. All cells were co-stained with DAPI. Scale bar represents 100 μm.
The differentiation capacity of hPSC after treatment with SC332 was also assessed. HPSC (hESC cell line H1 and NMF-iPS6) that had been enzymatically passaged with either SC332 or Y27632 for 30 consecutive passages were passively differentiated alongside mechanically maintained cells using a mixture of embryoid body based suspension culture and adherent culture. Differentiated cells were subsequently fixed and stained for markers from each of the three germ layers. […] As expected, untreated mechanically passaged control cells, included as a positive control, were also able to differentiate into each of the three germ layers (FIG. 5).

The subject of data set [2] is hESC line H9. The data set can be described thus: cell survival 24 hrs post enzymatic passage. It is filed as cell-based, human. Particulars: enzymatically passaged, 24 hrs post passage, mean ±SEM, n=3. The method, then:
(§1) Enzymatic passage of hPSC methodology 1. 24 hrs prior to passage (around 70-80% confluence), supply 1 well of near confluent hPSC with 2 ml StemPro supplemented with 30 μM SC332 (done during usual daily feed). 2. At point of passage, remove media and wash cells 1× in PBS (−/−). 3. Add 1.5 ml of TrypLE Select (1×) to well and return to incubator for 2-5 mins to dissociate to single cells. 4. Add 1.5 ml of StemPro to deactivate TrypLE Select and pipette gently using a 5 ml serological pipette (to dissociate any remaining clumps). 5. Transfer cells to 15 ml conical bottomed tube and centrifuge for 3 mins at 300 g. 6. Aspirate as much supernatant as possible and resuspend cell pellet by gently flicking. 7. Resuspend cells in PBS (−/−) and centrifuge again for 3 mins at 300 g. 8. Aspirate PBS (−/−) and resuspend cells in 1 ml of StemPro. Gently pipette using serological pipette. 9. Perform a cell count and replate hPSC at a density of 5×10^5 cells per well of a pre-coated 6 well plate. Top up to 2 mls total with StemPro supplemented with 30 μM SC332. Wells are pre-coated with 0.3 mg/ml fibronectin (recombinant vitronectin fragment can also be used). 10. Return cells to incubator and supply with fresh StemPro on a daily basis. 11. 24 hrs prior to subsequent passages (around 70-80% confluence), supply 1 well of PSC with 2 ml StemPro supplemented with 30 μM SC332 (done during usual daily feed). NB SC332 can be used transiently as described above or can be added to culture medium continuously (still at 30 μM).
(§2) Human pluripotent stem cells (hPSC) were either treated with SC332, Y27632, or left untreated, before being enzymatically passaged. […] In particular, the hESC lines H1, H9 and RC9 and the hiPSC NMF-iPSC6 had cell survival of 72% (±2.9), 73% (±2.8), 69% (±1.9) and 74% (±2.6) respectively when treated with SC332. […] Data shown is the mean survival ±SEM, n=3.

The subject of data set [3] is hiPSC NMF-iPSC6. Kind of data set: cell survival 24 hrs post enzymatic passage. It is filed as cell-based, human. Particulars: hiPSC NMF-iPSC6, enzymatically passaged, 24 hrs post passage, mean ±SEM, n=3. How it is done: as §1, §2
In data set [4] the test system is hESC line H1. The data set can be described thus: cell survival 24 hrs post enzymatic passage. It is filed as cell-based, human. Particulars: enzymatically passaged, 24 hrs post passage, mean ±SEM, n=3. How it is done:
as §1, §2

The test system of data set [5] is hESC line RC9. Kind of data set: cell survival 24 hrs post enzymatic passage. Particulars: enzymatically passaged, 24 hrs post passage, mean ±SEM, n=3. It is filed as cell-based, human. The method, then: as §1, §2
The subject of data set [6] is hPSC (H1 hESC). Kind of data set: cytogenetic stability (karyotype) after 30 consecutive passages. It is filed as cell-based, human. Particulars: H1 hESC treated for 30 consecutive passages. The source says: In addition to this, long term exposure to compound SC332 had no detrimental effect on the karyotypic stability of hPSC (FIGS. 2 and 3).
Data set [7] has as its system pMLC in iPSC (cell line NMF-iPS6). Kind of data set: western blot of phosphorylated myosin light chain (pMLC) after dissociation. Particulars: 15 mins post-dissociation, compared with untreated cells. It is filed as cell-based, human. The method, then: Protein samples were taken from iPSC (cell line NMF-iPS6) that were treated with SC332, Y27632 or had no treatment (control) before being dissociated. Samples were harvested 15 mins, 30 mins, 45 mins, 1 hr, 2 hr and 4 hr post dissociation. Western blot analysis was performed. […] Data shown as mean±SEM, n=3.
Background: A western blot detects proteins with antibodies after separation by electrophoresis.

The target in data set [8] is ROCK2 (Rattus norvegicus, UniProt Q62868). The data set can be described thus: radioactive filter-binding kinase assay (33P-ATP). It is filed as biochemical. The method, then: (§3) This screen utilises a radioactive filter-binding assay (33P-ATP) to assess the effect of compounds on kinase activity. Results confirmed that SC332 had no inhibitory effect on ROCK2 at a concentration of 10 μM (96% activity. SC332 also had very limited effect on the closely related PRK2, showing 76% and 98% activity when used at 10 μM and 30 μM respectively (FIG. 6).

Data set [9] addresses PRK2 (Homo sapiens, UniProt Q16513). The data set can be described thus: radioactive filter-binding kinase assay (33P-ATP). It is filed as biochemical. How it is done:
as §3

Molecules are shown by their SMILES.

Chain of PRK2 (Q16513 501-984 limits assumed, species assumed): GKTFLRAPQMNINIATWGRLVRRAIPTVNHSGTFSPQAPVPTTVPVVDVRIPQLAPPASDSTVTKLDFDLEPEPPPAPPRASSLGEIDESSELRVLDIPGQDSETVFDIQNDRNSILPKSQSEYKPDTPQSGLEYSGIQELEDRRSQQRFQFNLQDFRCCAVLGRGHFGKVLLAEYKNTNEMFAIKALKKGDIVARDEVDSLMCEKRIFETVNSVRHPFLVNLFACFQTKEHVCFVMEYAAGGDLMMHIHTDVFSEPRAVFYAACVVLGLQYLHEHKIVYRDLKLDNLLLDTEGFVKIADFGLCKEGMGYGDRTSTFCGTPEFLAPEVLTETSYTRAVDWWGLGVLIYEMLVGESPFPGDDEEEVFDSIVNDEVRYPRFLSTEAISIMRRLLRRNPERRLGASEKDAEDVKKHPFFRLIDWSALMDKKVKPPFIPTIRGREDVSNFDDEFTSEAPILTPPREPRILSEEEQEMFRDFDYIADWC
Chain of ROCK2 (Q62868 2-543 limits assumed): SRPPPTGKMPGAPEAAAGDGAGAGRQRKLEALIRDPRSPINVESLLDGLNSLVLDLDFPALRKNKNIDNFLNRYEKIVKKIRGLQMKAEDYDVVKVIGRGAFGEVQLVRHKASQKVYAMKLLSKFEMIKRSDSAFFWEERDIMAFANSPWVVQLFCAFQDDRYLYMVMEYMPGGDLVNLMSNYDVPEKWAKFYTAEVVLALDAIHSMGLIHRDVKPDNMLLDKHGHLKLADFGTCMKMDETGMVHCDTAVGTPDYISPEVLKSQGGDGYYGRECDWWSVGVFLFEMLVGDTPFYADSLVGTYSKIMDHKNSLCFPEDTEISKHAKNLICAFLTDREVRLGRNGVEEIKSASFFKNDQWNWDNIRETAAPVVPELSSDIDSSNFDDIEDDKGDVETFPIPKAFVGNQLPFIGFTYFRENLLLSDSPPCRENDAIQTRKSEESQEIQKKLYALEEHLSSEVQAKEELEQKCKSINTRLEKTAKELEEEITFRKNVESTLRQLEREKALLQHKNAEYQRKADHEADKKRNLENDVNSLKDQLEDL

Take `C[C@@H](N)[C@H]1CC[C@H](C(=O)Nc2ccncc2)CC1` [Y27632, reference compound]: in [1], the “differentiation towards mesoderm (SMA), endoderm (AFP) or ectoderm (PAX6)” value is reported as “did not block the differentiation”. Also, the cell survival in [2] worked out at 73%; in data set [3], 74%; in data set [4] it was 72%; in data set [5], 71%. The “cytogenetic stability (karyotype)” value in [6] is recorded as “karyotypically normal (46, XY)”. Besides, the “levels of pMLC relative to α-tubulin” value in data set [7] is “blocked the increase”.

Turning to `Cc1cc(NC(=O)Cn2c(NCc3ccccc3)nc3ccccc32)no1` [SC332, 2-(2-(benzylamino)-1H-benzo[d]imidazol-1-yl)-N-(5-methylisoxazol-3-yl)acetamide], in data set [1], the “differentiation towards mesoderm (SMA), endoderm (AFP) or ectoderm (PAX6)” value is “did not block the differentiation”. Also, the cell survival is recorded as 73% in data set [2], 74% in [3], 72% in data set [4] and 69% in data set [5]. For the same compound, in [6], the “cytogenetic stability (karyotype)” value was “karyotypically normal (46, XY)”. In addition, in data set [7], the “levels of pMLC relative to α-tubulin” value is “high levels of pMLC equivalent to those in untreated cells”. Also, in [8] (10 μM), the ROCK2 activity turned out to be 96 % activity. Also, the “inhibition of ROCK2 (in words)” value in data set [8] (30 μM) is on record as “did not inhibit”. The PRK2 activity in [9] (10 μM) stood at 76 % activity; in data set [9] (30 μM) it was 98 % activity. Also, in [9] (30 μM), the “inhibition of PRK2 (in words)” value is reported as “did not inhibit”.

Values taken from patent US20170362184A1, “PRO-SURVIVAL COMPOUNDS” (University Court of The University of Glasgow, priority 2014, published 2017).
